Active and inactive are the calls of the source. The calls are words filed in the database; no cut-off is given here.
How the values were obtained:
Plasmodium berghei [1] = experiment: Antimalarial activity against Plasmodium berghei infected in mouse assessed as reduction in parasitemia at 100 mg/kg/day, po for 4 days measured up to day 60 relative to control; assay type: functional; parameters: scale not given: the % may be the effect or the level left
Pseudomonas aeruginosa = experiment: Antibacterial activity against Pseudomonas aeruginosa; assay type: functional, organism-based
Staphylococcus aureus [2] = experiment: Antibacterial activity against methicillin-resistant Staphylococcus aureus; assay type: functional, organism-based
Vero = experiment: Cytotoxicity against African green monkey Vero cells by neutral red uptake assay; assay type: cell-based; settings: Chlorocebus sabaeus
SK-MEL = experiment: Cytotoxicity against human SK-MEL cells by neutral red uptake assay; assay type: cell-based
Plasmodium berghei [3] = experiment: Antimalarial activity against Plasmodium berghei infected in mouse assessed as reduction in parasitemia at 10 mg/kg/day, po for 4 days measured up to day 7; assay type: functional, organism-based
[4] = system: Mycobacterium intracellulare; experiment: Antibacterial activity against Mycobacterium intracellulare up to 20 ug/ml; assay type: functional, organism-based
Aspergillus fumigatus = experiment: Antifungal activity against Aspergillus fumigatus by broth microdilution assay; assay type: functional, organism-based
Nakaseomyces glabratus = experiment: Antifungal activity against Candida glabrata by broth microdilution assay; assay type: functional, organism-based
Plasmodium berghei [5] = experiment: Antimalarial activity against Plasmodium berghei infected in mouse assessed as reduction in parasitemia at 25 mg/kg/day, po for 4 days measured up to day 60 relative to control; assay type: functional; parameters: scale not given: the % may be the effect or the level left
KB = experiment: Cytotoxicity against human KB cells by neutral red uptake assay; assay type: cell-based
Pichia kudriavzevii = experiment: Antifungal activity against Candida krusei by broth microdilution assay; assay type: functional, organism-based
BT-549 = experiment: Cytotoxicity against human BT549 cells by neutral red uptake assay; assay type: cell-based
[6] = Selectivity index, ratio of IC50 for African green monkey Vero cells to IC50 for chloroquine-sensitive Plasmodium falciparum D6; assay type: toxicity, cell-based; settings: read-out: Ratio IC50
Plasmodium berghei [7] = experiment: Antimalarial activity against Plasmodium berghei infected in mouse assessed as reduction in parasitemia at 50 mg/kg/day, po for 4 days measured up to day 60 relative to control; assay type: functional; parameters: scale not given: the % may be the effect or the level left
Candida albicans = experiment: Antifungal activity against Candida albicans by broth microdilution assay; assay type: functional, organism-based
Plasmodium falciparum [8] = experiment: Antimalarial activity against chloroquine-sensitive Plasmodium falciparum D6 by lactate dehydrogenase assay; assay type: functional, organism-based
LLC-PK1 = experiment: Cytotoxicity against pig LLC-PK1 cells by neutral red uptake assay; assay type: cell-based; settings: Sus scrofa
Plasmodium falciparum [9] = experiment: Antimalarial activity against chloroquine-resistant Plasmodium falciparum W2 by lactate dehydrogenase assay; assay type: functional, organism-based
[10] = Inhibition of beta-hematin formation after 16 hrs; assay type: physicochemical
Cryptococcus neoformans [11] = experiment: Antifungal activity against Cryptococcus neoformans by broth microdilution assay; assay type: functional, organism-based
Leishmania donovani = experiment: Antileishmanial activity against Leishmania donovani promastigotes by Alamar Blue assay; assay type: functional, organism-based
Plasmodium berghei [12] = experiment: Antimalarial activity against Plasmodium berghei infected in mouse assessed as reduction in parasitemia at 100 mg/kg/day, po for 4 days measured up to day 14; assay type: functional; parameters: scale not given: the % may be the effect or the level left
Escherichia coli = experiment: Antibacterial activity against Escherichia coli; assay type: functional, organism-based
[13] = Selectivity index, ratio of IC50 for African green monkey Vero cells to IC50 for chloroquine-resistant Plasmodium falciparum W2; assay type: toxicity, cell-based; settings: read-out: Ratio IC50
SK-OV-3 = experiment: Cytotoxicity against human SKOV3 cells by neutral red uptake assay; assay type: cell-based
Cryptococcus neoformans [14] = experiment: Antifungal activity against Cryptococcus neoformans up to 20 ug/ml by broth microdilution assay; assay type: functional, organism-based
[15] = system: Mycobacterium intracellulare; experiment: Antibacterial activity against Mycobacterium intracellulare; assay type: functional, organism-based
Staphylococcus aureus [16] = experiment: Antibacterial activity against methicillin-resistant Staphylococcus aureus up to 20 ug/ml; assay type: functional, organism-based
Staphylococcus aureus [17] = experiment: Antibacterial activity against Staphylococcus aureus; assay type: functional, organism-based
Plasma = experiment: Half life in human plasma; assay type: ADME, cell-free
Staphylococcus aureus [18] = experiment: Antibacterial activity against Staphylococcus aureus up to 20 ug/ml; assay type: functional, organism-based
[19] = Plasmodium falciparum, D6, read-out: IC50
[20] = Plasmodium falciparum, W2, read-out: IC50

SMILES	Activity (Pseudomonas aeruginosa)	IC50 (Vero) [µg/mL]	IC50 (SK-MEL) [µg/mL]	Activity [4]	Activity (Aspergillus fumigatus)	Activity (Nakaseomyces glabratus)	IC50 (KB) [µg/mL]	Activity (Pichia kudriavzevii)	IC50 (BT-549) [µg/mL]	selectivity ratio [6]	Activity (Candida albicans)	IC50 (Plasmodium falciparum [8]; [19]) [µg/mL]	IC50 (LLC-PK1) [µg/mL]	IC50 (Plasmodium falciparum [9]; [20]) [µg/mL]	IC50 [10] [µM]	IC50 (Leishmania donovani) [µg/mL]	IC90 (Leishmania donovani)	Activity (Plasmodium berghei [12])	Activity (Escherichia coli)	IC50 (SK-OV-3) [µg/mL]	other results
COc1cc(NC(C)CCCNC(C)CCCN)c2nc(C(C)(C)C)ccc2c1.Cl (configuration not stated)	inactive	> 23.8	> 23.8	inactive	inactive	inactive	> 23.8	inactive	> 23.8	> 125	inactive	0.19	> 23.8	0.12	7.5	2.8	7.2 µg/mL	100%	inactive	> 23.8	Activity (Plasmodium berghei [1]): 100%; IC50 (Staphylococcus aureus [2]): 6.5 µg/mL; MBC (Staphylococcus aureus [2]): 20 µg/mL; MIC (Staphylococcus aureus [2]): 10 µg/mL; Activity (Plasmodium berghei [3]): Active; Activity (Plasmodium berghei [5]): 100%; Activity (Plasmodium berghei [7]): 100%; IC50 (Cryptococcus neoformans [11]): 10 µg/mL; MFC (Cryptococcus neoformans [11]): 20 µg/mL; MIC (Cryptococcus neoformans [11]): 20 µg/mL; selectivity ratio [13]: > 198
COc1cc(NC(C)CCCNC(C)CCCN)c2ncccc2c1.Cl (configuration not stated)	inactive	> 23.8	> 23.8	inactive	inactive	inactive	> 23.8	inactive	> 23.8	> 41.7	inactive	0.57	> 23.8	0.8	18.5	32	inactive	100%	inactive	> 23.8	Activity (Plasmodium berghei [1]): 100%; Activity (Plasmodium berghei [3]): Active; Activity (Cryptococcus neoformans [14]): inactive; Activity (Plasmodium berghei [5]): 100%; IC50 [15]: 10 µg/mL; Activity (Plasmodium berghei [7]): 100%; Activity (Staphylococcus aureus [16]): inactive; selectivity ratio [13]: > 29.7
COc1cc(NC(C)CCCNC(C)CCCNC(C)CCCN)c2nc(C(C)(C)C)ccc2c1.Cl (configuration not stated)	inactive	> 23.8	> 23.8	–	inactive	inactive	> 23.8	inactive	> 23.8	–	inactive	–	> 23.8	–	> 1000	1.6	4 µg/mL	100%	inactive	> 23.8	Activity (Plasmodium berghei [1]): 100%; Activity (Plasmodium berghei [3]): Active; Activity (Plasmodium berghei [5]): 100%; IC50 [15]: 9 µg/mL; MBC [15]: 20 µg/mL; MIC [15]: 20 µg/mL; Activity (Plasmodium berghei [7]): 100%; IC50 (Plasmodium falciparum [8]): Not Active; IC50 (Plasmodium falciparum [9]): Not Active; Activity (Staphylococcus aureus [16]): inactive; IC50 (Cryptococcus neoformans [11]): 7.5 µg/mL; MFC (Cryptococcus neoformans [11]): 20 µg/mL; MIC (Cryptococcus neoformans [11]): 20 µg/mL
COc1cc(NC(C)CCCNC(C)CCCNC(C)CCCN)c2ncccc2c1.Cl (configuration not stated)	inactive	> 23.8	> 23.8	inactive	inactive	inactive	> 23.8	inactive	> 23.8	> 9.1	inactive	2.6	> 23.8	1.5	75	4.2	40 µg/mL	100%	inactive	> 23.8	Activity (Plasmodium berghei [1]): 100%; Activity (Plasmodium berghei [3]): Active; Activity (Cryptococcus neoformans [14]): inactive; Activity (Plasmodium berghei [5]): 100%; Activity (Plasmodium berghei [7]): 100%; Activity (Staphylococcus aureus [16]): inactive; selectivity ratio [13]: > 15.8
COc1cc(NC(C)CCCNC(C)CCCNC(C)CCCNC(C)CCCN)c2ncccc2c1.Cl (configuration not stated)	inactive	> 23.8	> 23.8	inactive	inactive	inactive	> 23.8	inactive	> 23.8	> 10.3	inactive	2.3	> 23.8	1.3	75	5	40 µg/mL	100%	inactive	> 23.8	Activity (Plasmodium berghei [1]): 100%; Activity (Plasmodium berghei [3]): Active; Activity (Cryptococcus neoformans [14]): inactive; Activity (Plasmodium berghei [5]): 100%; Activity (Plasmodium berghei [7]): 100%; Activity (Staphylococcus aureus [16]): inactive; selectivity ratio [13]: > 18.3
CCCCOc1c(OC)cc(NC(C)CCCNC(C)CCCN)c2nccc(CC)c12.Cl (configuration not stated)	inactive	> 23.8	> 23.8	inactive	inactive	inactive	> 23.8	inactive	> 23.8	> 39.6	inactive	0.6	> 23.8	0.37	10.2	3.5	7 µg/mL	inactive	inactive	> 23.8	IC50 (Staphylococcus aureus [2]): 12.5 µg/mL; MBC (Staphylococcus aureus [2]): 20 µg/mL; MIC (Staphylococcus aureus [2]): 20 µg/mL; Activity (Cryptococcus neoformans [14]): inactive; IC50 [15]: > 20 µg/mL; IC50 (Staphylococcus aureus [17]): 13.7 µg/mL; MBC (Staphylococcus aureus [17]): 20 µg/mL; MIC (Staphylococcus aureus [17]): 20 µg/mL; IC50 (Cryptococcus neoformans [11]): 7.9 µg/mL; MIC (Cryptococcus neoformans [11]): 20 µg/mL; selectivity ratio [13]: > 64.2
COc1cc(NC(C)CCCN)c2ncccc2c1 (configuration not stated) [PRIMAQUINE]	–	> 23.8	–	–	–	–	–	–	–	–	–	–	–	–	> 1000	–	inactive	–	–	–	t1/2 (Plasma): 4 h
CCCCCCCCOc1c(OC)cc(NC(C)CCCNC(C)CCCN)c2nccc(CC)c12.Cl (configuration not stated)	inactive	> 23.8	> 23.8	inactive	inactive	inactive	> 23.8	inactive	> 23.8	> 25.8	inactive	0.92	> 23.8	0.82	15.7	17	32 µg/mL	inactive	inactive	> 23.8	IC50 (Staphylococcus aureus [2]): 10.4 µg/mL; MBC (Staphylococcus aureus [2]): 20 µg/mL; MIC (Staphylococcus aureus [2]): 20 µg/mL; Activity (Staphylococcus aureus [18]): inactive; IC50 [15]: > 20 µg/mL; IC50 (Staphylococcus aureus [17]): 14.5 µg/mL; IC50 (Cryptococcus neoformans [11]): 8.5 µg/mL; MFC (Cryptococcus neoformans [11]): 20 µg/mL; MIC (Cryptococcus neoformans [11]): 20 µg/mL; selectivity ratio [13]: > 29

From ChEMBL document CHEMBL3217667, “Extended side chain analogues of 8-aminoquinolines: Synthesis and evaluation of antiprotozoal, antimicrobial, -hematin inhibition, and cytotoxic activities” (Medchemcomm, 2011)
